Results from patent publication US20210338557A1, “Oxidized Derivatives of GDF-11 Fragments” (Avon Products, Inc., priority 2019, published 2021).
Where a SMILES comes first, the peptide text is derived from it. [ ]: non-standard residue; d: D form. Met(O2) = CS(=O)(=O)CC[CH](N)C(=O)O; Met(O) = CS(=O)CC[CH](N)C(=O)O

Columns and labels:
[1] = test system: explanted skin tissue; assay: Ex vivo skin explant collagen score (papillary dermis, image analysis); assay type: cell-based, human; settings: for Collagen score, Mean: days 0, 1, 2, 5, 7
Procedure: (§1) Samples of explanted skin tissue were obtained from an abdominal plasty. Samples (33 in total) were maintained in tissue culture medium at 37° C. in a humid, 5% CO2 atmosphere for the duration of the study.
(§2) The skin tissue explants were then distributed into appropriate controls or treated samples in triplicates. The control received only a vehicle (DMSO), and the treatment samples received vehicle comprising either M(O)2VV or Ac-M(O)2VV at 0.0005%, 0.001%, or 0.01% by weight of the composition. Administration of vehicle or vehicle with the peptide occurred on days 0, 1, 2, 5, and 7.
(§3) Stained tissue sections (in triplicates) were examined for qualitative and semi-qualitative differences between treated and control samples and low and high power using Zeiss Mimax and Midi BF microscope and software system. For HA evaluation, samples were washed and processed with Methylthiazolyldiphenyl-tetrazolium bromide (MTT). MTT is converted to water-insoluble dark blue colored MTT-formazan by mitochondrial dehydrogenases. Subsequently the blue crystals have been solubilized and the color intensity, that is directly proportional to skin vitality, has been measured with a plate reader at a wavelength of 570 nm. For each analyzed skin sample the obtained absorbance value has been normalized upon the weight in grams. Twelve skin suctions were stained with an acian blue stain that dyes acid mucins such as hyaluronan to develop the HA score. Dermal collagen was also measured using a picrosirius red histochemical stain that dyes collagen fibers in purple-red. The papillary dermis was selected for the analysis as thi sis the portion of the dermis more subjected to collagen variation in response to treatment.
(§4) 8-bit grey-scale photomicrographs were captured and transformed from RGB to the standard CIE L*a*b* color space. The L* value for each pixel in the ROI was evaluated using ImageJ software (National Institutes of Health, Bethesda, Md.) with the Color Inspector 3D plug-in. The amount of hyaluron present was evaluated based on the intensity and distribution of blue color in the dermis using an imaging method analogous to that used for procollagen I. Scores reflecting the amount of hyaluronan detected were assigned using an image analysis algorithm proprietary to Cutech Srl. Higher HA scores is indicative of a higher HA content. Similarly, the amount of procollagen I was evaluated based on the intensity and distribution of immunostained procollagen I in the area corresponding to the papillary dermis, just below the epidermis. As above, 8-bit grey-scale photomicrographs were captured and transformed from RGB to the standard CIE L*a*b* color space. The L* value for each pixel in the ROI was evaluated using ImageJ software (National Institutes of Health, Bethesda, Md.) with the Color Inspector 3D plug-in. Scores reflecting the amount of procollagen I detected were assigned using an image analysis algorithm proprietary to Cutech Srl.
Columns marked with “**” were highly significant (p<0.05) with respect to untreated samples and with respect to samples administered vehicle alone (DMSO.

[2] = test system: Human dermal fibroblast cells; assay: Hyaluronic acid (HA) secretion by human dermal fibroblasts, HTRF HABP kit; assay type: cell-based; settings: 48 h, relative to vehicle control
Procedure: (§5) Human dermal fibroblast cells were grown in a 96 well plate in DMEM media (available from Corning, N.Y.) supplemented with 10% Fetal Bovine Serum (FBS) and L-glutamine (0.07×10^5 cells/plate). After reaching about 75% confluence, cells were transferred into DMEM media without FBS and incubated for 4-6 hours. Next, cells were treated with a peptide or prodrug thereof (MVV, Ac-MVV) or peptide derivative or prodrug thereof (M(O)2VV, Ac-M(O)2VV, Ac-M(O)VV) at 0.00001%, 0.0001%, 0.0005%, or 0.001% final concentration in DMEM media without FBS for 48 h. After treatment, the media were collected and cell viability was measured using MTT. The amount of collagen or hyaluronic acid (HA) secreted was tested in the media using an HTRF human pro-collagen I kit or an HTRF HABP kit, respectively (each available from Cisbio Inc., Bedford, Mass.).
(§6) The results for HA production following administration to the fibroblasts are summarized in Table 13 as percent change of HA production for each active relative to vehicle control. p values are given with respect to the change in HA on the fibroblasts with vehicle control administration or with respect to MWV administration.

[3] = test system: Human dermal fibroblast cells; assay: Collagen (pro-collagen I) secretion by human dermal fibroblasts, HTRF human pro-collagen I kit; assay type: cell-based; settings: 48 h, relative to vehicle control
Procedure: as §5
as §6, with “collagen” for “HA”, “14” for “13”, “MVV” for “with respect to MWV”

[4] = test system: explanted skin tissue; assay: Ex vivo skin explant HA score (alcian blue stain, image analysis); assay type: cell-based, human; settings: for HA score, Mean: days 0, 1, 2, 5, 7
Procedure: as §1, §2, §3, §4
Columns marked with “**” were highly significant (p<0.05) with respect to untreated samples and with respect to samples administered vehicle alone (DMSO).

[5] = test system: Human 3D skin EFT400FT tissues; assay: HA production in full thickness 3D skin cultures, HTRF HABP kit; assay type: cell-based; settings: topical daily for 3 days, n=6
Procedure: A series of experiments was conducted to assess the effects of peptide derivatives on the production of hyaluronic acid (HA) on full thickness 3D skin cultures. Five different treatment regimens were assessed: (1) 0.01% by weight M(O)2VV in vehicle; (2) 0.002% by weight M(O)2VV in vehicle; (3) 0.01% by weight Ac-M(O)2VV in vehicle; (4) 0.002% by weight Ac-M(O)2VV in vehicle; and (5) vehicle alone (DMSO). Compositions at the indicated weight percentages in DMSO were applied to 3D skin equivalents daily for 3 consecutive days.
Human 3D skin EFT400FT tissues (MatTek, MA) were cultured following the manufacturer's instructions. Each treatment regimen was topically applied to six 3D skin samples. Different 3D skin samples were assigned to one of treatment regimens (1)-(5) as described above, with six skin tissue models allocated to each treatment regimen (i.e., n=6). Following treatment, media were collected and the amount of hyaluronic acid secreted from the cells was measured using a HTRF HABP kit (available from Cisbio Inc., Bedford, Mass.).
The results for HA production are shown in Table 15. p values are given in relation to administration with vehicle control alone or in relation to MVV.

| Molecule | Collagen score % Change Over DMSO ([1]; 5 ppm) [%] | Collagen score % Change Over Untreated ([1]; 5 ppm) [%] | Collagen score, Mean ([1]; 5 ppm in DMSO) | Collagen score % Change Over DMSO ([1]; 10 ppm) [%] | Collagen score % Change Over Untreated ([1]; 10 ppm) [%] | Collagen score, Mean ([1]; 10 ppm in DMSO) | Collagen score % Change Over DMSO ([1]; 100 ppm) [%] | Collagen score % Change Over Untreated ([1]; 100 ppm) [%] | Collagen score, Mean ([1]; 100 ppm in DMSO) | HA % change ([2]; 0.00001 wt %) [%] | HA % change ([2]; 0.0001 wt %) [%] | HA % change ([2]; 0.0005 wt %) [%] | HA % change ([2]; 0.001 wt %) [%] | Collagen % change ([3]; 0.00001 wt %) [%] | Collagen % change ([3]; 0.0001 wt %) [%] | Collagen % change ([3]; 0.0005 wt %) [%] | Collagen % change ([3]; 0.001 wt %) [%] | HA score % Change Over DMSO ([4]; 5 ppm) [%] | HA score % Change Over Untreated ([4]; 5 ppm) [%] | HA score, Mean ([4]; 5 ppm in DMSO) | also measured |
| --- | --- | --- | --- | --- | --- | --- | --- | --- | --- | --- | --- | --- | --- | --- | --- | --- | --- | --- | --- | --- | --- |
| CC(=O)NC(CCS(C)(=O)=O)C(=O)NC(C(=O)NC(C(=O)O)C(C)C)C(C)C (stereo not drawn) [Ac-M(O)2VV] (Ac-[Met(O2)]-Val-Val-OH; configuration not given here) | 73 | 57 | 61.7 | 75 | 59 | 61.9 | 52 | 35 | 59.6 | 10.33 | 7.31 | 7.90 | 11.04 | 12.29 | 11.29 | −0.56 | 13.65 | −7 | −4 | 9.5 | HA score % Change Over DMSO ([4]; 10 ppm): 25%; HA score % Change Over Untreated ([4]; 10 ppm): 28%; HA score, Mean ([4]; 10 ppm in DMSO): 12.7; HA score % Change Over DMSO ([4]; 100 ppm): 9%; HA score % Change Over Untreated ([4]; 100 ppm): 12%; HA score, Mean ([4]; 100 ppm in DMSO): 11.1; % HA change ([5]; 0.002% (20 ppm) in DMSO): 1.386%; % HA change ([5]; 0.01% (100 ppm) in DMSO): 12.47% |
| CC(=O)NC(CC[S+](C)[O-])C(=O)NC(C(=O)NC(C(=O)O)C(C)C)C(C)C (stereo not drawn) [Ac-M(O)VV] (Ac-[Met(O)]-Val-Val-OH; configuration not given here) |  |  |  |  |  |  |  |  |  | 17.50 | 16.95 | 17.69 | 21.87 | 7.20 | 4.59 | 14.02 | 13.49 |  |  |  |  |
| CC(C)C(NC(=O)C(NC(=O)C(N)CCS(C)(=O)=O)C(C)C)C(=O)O (stereo not drawn) [M(O)2VV, methionine sulfone valine valine] (H-[Met(O2)]-Val-Val-OH; configuration not given here) | −7 | −25 | 53.6 | 35 | 18 | 57.9 | 13 | −5 | 55.6 | 14.01 | 17.49 | 10.25 | 19.43 | 5.74 | 12.51 | 1.56 | 6.07 | 18 | 21 | 12 | HA score % Change Over DMSO ([4]; 10 ppm): 14%; HA score % Change Over Untreated ([4]; 10 ppm): 17%; HA score, Mean ([4]; 10 ppm in DMSO): 11.6; HA score % Change Over DMSO ([4]; 100 ppm): −4%; HA score % Change Over Untreated ([4]; 100 ppm): −1%; HA score, Mean ([4]; 100 ppm in DMSO): 9.8; % HA change ([5]; 0.002% (20 ppm) in DMSO): 6.236%; % HA change ([5]; 0.01% (100 ppm) in DMSO): 10.28% |
| MVV (listed as Homo sapiens) [MW, reference compound] |  |  |  |  |  |  |  |  |  | 5.79 | 1.63 | 3.66 | 9.00 | 7.22 | 10.56 | 31.22 | 6.22 |  |  |  |  |
